In patent US20170158636A1, “FUNCTIONALISED AND SUBSTITUTED CARBAZOLES AS ANTI-CANCER AGENTS” (Novogen Ltd., priority 2014, published 2017):

Tests used:
[1] = tested on: Tpm3.1-containing actin filaments in SK-N-SH neuroblastoma cells; assay: Disruption of Tpm3.1-containing actin filaments (γ9d staining); type: cell-based; details: SK-N-SH cells, 0, 5 and 7.5 μM, 48 hours post treatment
Method: FIG. 2: Imaging and quantitation of Tpm3.1-containing actin filaments in SK-N-SH neuroblastoma cells treated with compound (A) 1007, (B) 1013 and (C) 1016. Cells were stained with γ9d (sheep polycolonal, 1:100) followed by 488-conjugated secondary (1:1000) and DAPI to visualize the Tpm3.1 containing filament bundles and the nucleus, respectively. Shown in the top panel is a representative gray scale immunofluorescent image from control (vehicle alone), 5 μM and 7.5 μM treated cells. […] The coloured lines indicate the detected Tpm3.1 containing actin filaments. Also shown is the quantitation of cell number, Tpm3.1 filament number/cell and Tpm3.1 filament number/cell area (μM^2). Statistical analysis was performed using a one way ANNOVA-multiple comparison where each drug treated group was compared to the control. ****p<0.0001.
Another assay was conducted to assess the ability of compounds 1007, 1013 and 1016 to specifically disrupt actin filaments containing Tpm3.1 (FIG. 2). Briefly, SK-N-SH neuroblastoma cells were seeded at 2×10^4 cells/mL in a 10 cm tissue culture plate and left to plate down 24 hours prior to treatment. Cells were then treated with 0, 5 and 7.5 μM of the test compounds. 48 hours post treatment, cells were fixed with 4% w/v paraformaldehyde (PBS), permeabilized with Triton-X-100 and stained with γ9d (sheep polycolonal, 1:100) followed by 488-conjugated secondary (1:1000) and DAPI to visualize the Tpm3.1 containing filament bundles and the nucleus, respectively. Single plane images were obtained on the Zeiss epifluorescent Axioscope microscope using a 20× objective. Six fields of view per condition were imaged. Images were then exported and the linear features (actin filaments containing Tpm3.1) were then quantitated using the linear feature detection algorithm described above.

[2] = tested on: actin cytoskeleton in SK-N-SH neuroblastoma cells; assay: Microfilament disruption assay (phalloidin staining, linear feature quantitation); type: cell-based; details: 0-40 μM, 24 hours post treatment
Method: FIG. 1: Imaging and quantitation of actin filaments in SK-N-SH neuroblastoma cells treated with compound (A) 1007, (B) 1013 and (C) 1016. Cells were stained with 488-Atto-Phallodin and DAPI to visualize the actin filament bundles and the nucleus, respectively. Shown in the top panel is a representative gray scale immunofluorescent image from control (vehicle alone), 5 μM and 10 μM treated cells. […] The coloured lines indicate the detected actin filaments. Also shown is the quantitation of cell number, filament number/cell and filament number/cell area (μM^2). Statistical analysis was performed using a one way ANNOVA-multiple comparison where each drug treated group was compared to the control. ****p<0.0001, […].
The ability of compounds 1007, 1013 and 1016 to disrupt the actin cytoskeleton was assessed in vitro using the microfilament disruption assay (FIG. 1).
Briefly, SK-N-SH neuroblastoma cells were seeded at 1800 cells/well in a 384 Perkin Elmer High Content Imaging “Cell Carrier” plate and left to plate down 24 hours prior to treatment. Cells were then treated with 0-40 μM of the test compounds (1:2 serial dilution in a 10 point dose response). 24 hours post treatment, cells were fixed with 4% w/v paraformaldehyde (PBS), permeabilized with Triton-X-100 and stained with 488-Atto-Phallodin and DAPI to visualize the actin filament bundles and the nucleus respectively. Single plane images were obtained on the Perkin Elmer Opera confocal microscope using a 20× objective. Twelve fields of view per condition (representing approximately 300-800 cells) were imaged. Images were then exported and changes in the organization and numbers of actin filaments within the cell were quantitated using a linear feature detection algorithm developed by CSIRO (Vindin et al. 2014). This algorithm detects the “ridge lines” or “peaks” in local pixel intensity in the cell image. It is these “ridge lines” that correspond to actin filament bundles and allow us to quantitate the number of filaments per cell.

[3] = tested on: A549 lung (NSLC) cancer cells; assay: Anti-proliferative activity, cell-titre luminescent viability assay; type: cell-based; details: Homo sapiens, 72 hours exposure
Method: (§1) The ability of compounds 1001-1018 and 1037-1039 to inhibit the proliferation of cancer cells representative of neuroblastoma, melanoma, prostate cancer, colorectal cancer, non-small cell lung carcinoma, and triple negative breast cancer was assessed (Table 1).
(§2) Briefly, a pre-determined number of cells as calculated from cell growth assays for each of the cell lines employed were seeded into their respective culture medium (using ATCC culture parameters—http://www.atcc.org) and cultured for 24 hours at 37° C. and 5% CO2 in 96-well culture plates. Once attached, each cell line was then exposed to increasing concentrations of each respective analogue (0.03, 0.3, 3 and 30 μM for compounds 1001-13 and 1015-18; 0.1, 0.3, 1, 3, 10 and 30 μM for compounds 1014 and 1037-39), cultured for a further 72 hours and exposed to cell-titre luminescent reagent (100 μL/well) for a further 30 minutes) to measure cell viability. Luminescence was captured using an EnVision multilabel reader and the data for each analogue concentration compared against no treatment control. For compounds 1001-13 and 1015-18, semi-log plots of Percent of Control versus concentration were prepared and IC50 determined using linear regression analysis. For compounds 1014 and 1037-39, cell viability was normalized to control (vehicle alone) and dose-response curves, and half maximal effective concentration (EC50) values were determined using Graph Pad Prism 6 (nonlinear regression sigmoidal dose-response variable slope).

[4] = tested on: SK-N-SH neuroblastoma cells; assay: as above; type: cell-based; details: Homo sapiens, 72 hours exposure
Method: as §1, §2

SK-Mel-28 melanoma cells = assay: as above; type: cell-based; details: Homo sapiens, 72 hours exposure
Method: as §1, §2

[5] = tested on: MDA-MB-231 breast cancer cells; assay: as above; type: cell-based; details: Homo sapiens, 72 hours exposure
Method: as §1, §2

[6] = tested on: DU145 prostate cancer cells; assay: as above; type: cell-based; details: Homo sapiens, DU-145, 72 hours exposure
Method: as §1, §2

[7] = tested on: PC3 prostate cancer cells; assay: as above; type: cell-based; details: 72 hours exposure
Method: as §1, §2

[8] = tested on: CaCo2 colorectal cancer cells; assay: as above; type: cell-based; details: Homo sapiens, Caco-2, 72 hours exposure
Method: as §1, §2

Skeletal myosin II = assay: Actin-activated myosin II ATPase activity; type: biochemical; details: 50 μM, absence of Tpm3.1
Method: FIG. 4: Effect of anti-tropomyosin compounds on actin-activated myosin II ATPase activity. Skeletal myosin II (30-60 nM) was incubated with 1% (v/v) DMSO or 50 μM of Blebbistatin, TR100 or compound 1001 for 5 min prior to mixing with 3 μM F-actin. Reactions were initiated with 1 mM ATP and inorganic phosphate release was detected spectrophotometrically. Data represents mean±SEM, for n=2-4 independent repeats. **P-value, 0.001<0.01.
To exclude an off-target activity, the impact of compound 1001 and TR100 (another small molecule with anti-tropomyosin activity) on myosin II ATPase activity was evaluated in the absence of Tpm3.1. The small molecule blebbistatin was included as a positive control known to inhibit myosin II ATPase activity. Blebbistatin acts by binding to the myosin-ADP-Pi complex and slowing the release of inorganic phosphate (Kovacs et al., 2004). Myosin II was pre-incubated with 50 μM of blebbistatin, TR100 or 1001 prior to mixing with F-actin. […] Compound 1001 had no effect on myosin ATPase activity at equivalent concentrations to that of TR100 (FIG. 4).

TNF-α = assay: Cytokine release from LPS-stimulated PBMCs (HTRF); type: cell-based; details: PBMC, human PBMCs
Method: (§3) The ability of compounds 1004, 1007 and 1018 to inhibit the release of cytokines TNF-α, IFN-γ, IL-6, IL-21, IL-17A and IL-23 was evaluated in vitro (Tables 2 and 3). Briefly, human peripheral blood mononuclear cells (PBMCs) were isolated from human peripheral blood by Histopaque density gradient centrifugation. The freshly isolated PBMCs were seeded at 50,000 cells/well in a 96-well half area plate. PBMCs were dosed with the test compounds (at 10 μM, 1 μM and 0.1 μM) and then incubated at 37° C. and 5% CO2 for 2 hours. To stimulate release of the cytokines IFN-γ, IL-21, IL-17A and IL-23, the PBMCs were treated with 50 ng/mL of phorbol 12-myristate 13-acetate (PMA) and 1 μg/mL of ionomycin and to stimulate the release of TNF-α and IL-6, PBMCs were treated with 100 ng/mL of lipopolysaccharide (LPS) from gram-negative bacteria. The PBMCs were then incubated at 37° C. and 5% CO2 for a further 6 hours and the cell supernatant was collected and a Homogenous Time Resolved Fluorescence (HTRF) assay was carried out following the manufacturer's instructions. Cytokine release from the PBMCs was captured using a Perkin Elmer ENVISION 2104 microplate reader set at 615 nm and 665 nm respectively.

IL-6 = assay: Cytokine release from LPS-stimulated PBMCs (HTRF); type: cell-based; details: PBMC, human PBMCs
Method: as §3

IL-21 = assay: Cytokine release from PMA/ionomycin-stimulated PBMCs (HTRF); type: cell-based; details: PBMC, human PBMCs, PMA and ionomycin
Method: as §3

IL-17A = assay: as above; type: cell-based; details: PBMC, human PBMCs, PMA and ionomycin
Method: as §3

IFN-γ = assay: as above; type: cell-based; details: PBMC, human PBMCs, PMA and ionomycin
Method: as §3

IL-23 = assay: as above; type: cell-based; details: PBMC, human PBMCs, PMA and ionomycin
Method: as §3

SMILES	disruption of Tpm3.1-containing actin filaments [1]	disruption of the actin cytoskeleton [2]	IC50 [3] [nM]	IC50 [4] [nM]	IC50 (SK-Mel-28 melanoma cells) [nM]	IC50 [5] [nM]	IC50 [6] [nM]	IC50 [7] [nM]	IC50 [8] [nM]	inhibition at 0.1 µM (TNF-α) [%]	inhibition at 1 µM (TNF-α) [%]	inhibition at 10 µM (TNF-α) [%]	inhibition at 0.1 µM (IL-6) [%]	inhibition at 1 µM (IL-6) [%]	inhibition at 10 µM (IL-6) [%]	inhibition at 0.1 µM (IL-21) [%]	inhibition at 1 µM (IL-21) [%]	inhibition at 10 µM (IL-21) [%]	inhibition at 0.1 µM (IL-17A) [%]	inhibition at 1 µM (IL-17A) [%]	further results
CN1CCN(CCCn2c3ccccc3c3cc(C(=O)N4CCN(CCc5ccc(F)cc5)CC4)ccc32)CC1 [Compound 1013, (4-(4-fluorophenethyl)piperazin-1-yl)(9-(3-(4-methylpiperazin-1-yl)propyl)-9H-carbazol-3-yl)methanone]	disrupt Tpm3.1-containing actin filaments in a dose-dependent manner	disrupt the actin cytoskeleton in a dose-dependent manner	3700	2400	2000	2800	3500	3300	2000	–	–	–	–	–	–	–	–	–	–	–	–
Cc1ccc2c(c1)C(=O)C1(O)CCN(c3ccccc3)C1=N2 (stereo not shown) [blebbistatin]	–	–	–	–	–	–	–	–	–	–	–	–	–	–	–	–	–	–	–	–	effect on actin-activated myosin II ATPase activity (Skeletal myosin II): strongly inhibited
CCCCCCCCNC(=O)/C(C#N)=C/c1c(C)n(CCCN(C)C)c2ccccc12 [TR100]	–	–	–	–	–	–	–	–	–	–	–	–	–	–	–	–	–	–	–	–	inhibition of actin-activated myosin ATPase activity (Skeletal myosin II): ~70%
CN(C)CCCn1c2ccccc2c2cc(C(=O)N3CCN(CCc4ccc5c(c4)OCO5)CC3)ccc21 [Compound 1004, (4-(2-(benzo[d][1,3]dioxol-5-yl)ethyl)piperazin-1-yl)(9-(3-(dimethylamino)propyl)-9H-carbazol-3-yl)methanone]	–	–	3400	2900	3500	3800	3300	2900	3700	9	-8	1	-9	-10	2	-6	-3	2	-2	6	inhibition at 10 µM (IL-17A): 47%; inhibition at 0.1 µM (IFN-γ): -19%; inhibition at 1 µM (IFN-γ): -6%; inhibition at 10 µM (IFN-γ): -7%; inhibition at 0.1 µM (IL-23): -16%; inhibition at 1 µM (IL-23): 9%; inhibition at 10 µM (IL-23): 22%
CN1CCN(CCCn2c3ccccc3c3cc(C(=O)N4CCN(CCc5ccccc5)CC4)ccc32)CC1 [Compound 1018, (4-phenethylpiperazin-1-yl)(9-(3-(4-methylpiperazin-1-yl)propyl)-9H-carbazol-3-yl)methanone]	–	–	2000	1900	2500	1600	3300	2900	1500	26	58	77	22	56	89	13	33	50	2	34	inhibition at 10 µM (IL-17A): 45%; inhibition at 0.1 µM (IFN-γ): 2%; inhibition at 1 µM (IFN-γ): 19%; inhibition at 10 µM (IFN-γ): 92%; inhibition at 0.1 µM (IL-23): -6%; inhibition at 1 µM (IL-23): -2%; inhibition at 10 µM (IL-23): 58%
CN1CCN(CCCn2c3ccccc3c3cc(C(=O)N4CCN(CCc5cccc(F)c5)CC4)ccc32)CC1 [Compound 1016, (4-(3-fluorophenethyl)piperazin-1-yl)(9-(3-(4-methylpiperazin-1-yl)propyl)-9H-carbazol-3-yl)methanone]	disrupt Tpm3.1-containing actin filaments in a dose-dependent manner	disrupt the actin cytoskeleton in a dose-dependent manner	3000	2700	2400	2500	2800	4000	3100	–	–	–	–	–	–	–	–	–	–	–	–
